Results published in patent US20220062379A1, “METHODS AND COMPOSITIONS FOR MODULATING IMMUNE DYSREGULATION” (The General Hospital Corporation, priority 2019, published 2022).
Each block holds one molecule with its values, some of them ahead of it.

Columns and labels:
TNF = test: Whole blood cytokine release, TNF (ELISA); assay type: cell-based; details: diluted human whole blood, LPS 1.5 ng/ml, 18 h, mean ± 95% confidence intervals; for inhibition at 25 µM / inhibition at 50 µM / inhibition at 100 µM: read-out: % Inhibition of cytokine release, relative to vehicle: TNF
Procedure: (§1) Fresh, anonymized, heparinized, human blood from male donors was diluted 1:3 with RPMI containing penicillin and streptomycin. 150 μl diluted blood was added to each well of a 96 well plate then acclimatized to 37° C. and 5% CO2 for 1 hour. Inhibitors were prepared as described below then added to the diluted blood in 25 μl volume. After a further hour at 37° C. with 5% CO2, diluted blood was stimulated with LPS diluted in 25 μl RPMI containing penicillin and streptomycin to a final concentration of 1.5 ng/ml. After 18 h at 37° C. and 5% CO2, diluted blood was centrifuged at 500×g for 5 min and supernatant collected and stored at −20° C. until ELISAs were performed. Data are presented as mean inhibition relative to vehicle control ±95% confidence intervals, n=3-4 independent experiments.
(§2) Inhibitors and vehicles used for resuspension were: Compound 26, EMD Millipore, Cat #5.31237.0001, resuspended in DMSO; PF 06650833, R & D Systems, Cat #6373, resuspended in DMSO; OEPC (oleyloxyethyl phosphorylcholine), Santa Cruz Biotechnology, item # sc-200711, resuspended in DMSO; YM26734, Santa Cruz Biotechnology, item # sc-204410, resuspended in DMSO; Isoquercetin, Cayman Chemical, item #24926, resuspended in DMSO; ISA-2011B, Medchem Express, cat # HY-16937, resuspended in DMSO; Benzamil, TOCRIS, Cat #3380/10, resuspended in water; Cell permeable NFAT inhibitor (11R-VIVIT), Tocris, Cat #5710, resuspended in PBS. ELISAs were performed using Duoset reagents from R&D systems, catalogue # DY210 (human TNF), # DY206 (human IL6), and #DY201 (human IL-1β).

IL6 = test: Whole blood cytokine release, IL6 (ELISA); assay type: cell-based; details: diluted human whole blood, LPS 1.5 ng/ml, 18 h, mean ± 95% confidence intervals; for inhibition at 25 µM / inhibition at 50 µM / inhibition at 100 µM: read-out: % Inhibition of cytokine release, relative to vehicle: IL6
Procedure: as §1, §2

IL1β = test: Whole blood cytokine release, IL-1β (ELISA); assay type: cell-based; details: diluted human whole blood, LPS 1.5 ng/ml, 18 h, mean ± 95% confidence intervals; for inhibition at 25 µM / inhibition at 50 µM / inhibition at 100 µM: read-out: % Inhibition of cytokine release, relative to vehicle: IL1β
Procedure: as §1, §2

[1] = target: NFATC2 (Nuclear Factor Of Activated T Cells 2) (human)
[2] = tested on: proinflammatory cytokine release; test: Whole blood cytokine release assay, cytokines not itemised; assay type: cell-based, human; details: for Effect on (proinflammatory) cytokine release in whole blood assay (in words): in response to LPS stimulation
Procedure: as §1, §2
Where direct chemical modulators of the proposed inflammatory modulators were available, we tested their effect on endothelial permeability using ECIS and/or on the leukocyte inflammatory response using the whole blood assay described above.
Agents used were SJ000291942 (Sigma #SML2087-5MG) and saxagliptin (Santa Cruz Biotechnology #sc-473161), both resuspended in DMSO.

Molecule: O=c1c(O[C@@H]2O[C@H](CO)[C@@H](O)[C@H](O)[C@H]2O)c(-c2ccc(O)c(O)c2)oc2cc(O)cc(O)c12 [Isoquertecin, Isoquercetin]
- inhibition at 25 µM (TNF; 25 μM): 9%
- inhibition at 50 µM (TNF; 50 μM): 23%
- inhibition at 100 µM (TNF; 100 μM): 29%
- inhibition at 25 µM (IL6; 25 μM): 26%
- inhibition at 50 µM (IL6; 50 μM): 31%
- inhibition at 100 µM (IL6; 100 μM): 26%
- inhibition at 25 µM (IL1β; 25 μM): 15%
- inhibition at 50 µM (IL1β; 50 μM): 25%
- inhibition at 100 µM (IL1β; 100 μM): 19%

Molecule: 11R-VIVIT
- % Inhibition of cytokine release, relative to vehicle: TNF (TNF; 12.5 μM): 23% ± 12.2%
- % Inhibition of cytokine release, relative to vehicle: TNF (TNF; 25 μM): 40% ± 7.1%
- % Inhibition of cytokine release, relative to vehicle: TNF (TNF; 50 μM): 79% ± 14.3%
- % Inhibition of cytokine release, relative to vehicle: IL6 (IL6; 12.5 μM): −10% ± 16.7%
- % Inhibition of cytokine release, relative to vehicle: IL6 (IL6; 25 μM): 2% ± 32.9%
- % Inhibition of cytokine release, relative to vehicle: IL6 (IL6; 50 μM): 87% ± 17.9%
- % Inhibition of cytokine release, relative to vehicle: IL1β (IL1β; 12.5 μM): 32% ± 13.0%
- % Inhibition of cytokine release, relative to vehicle: IL1β (IL1β; 25 μM): 48% ± 27.4%
- % Inhibition of cytokine release, relative to vehicle: IL1β (IL1β; 50 μM): 51% ± 26.3%

Molecule: NC(=NCc1ccccc1)NC(=O)c1nc(Cl)c(N)nc1N [Benzamil]
- inhibition at 25 µM (TNF; 25 μM): 4%
- inhibition at 50 µM (TNF; 50 μM): 23%
- inhibition at 100 µM (TNF; 100 μM): 69%
- inhibition at 25 µM (IL6; 25 μM): 11%
- inhibition at 50 µM (IL6; 50 μM): 22%
- inhibition at 100 µM (IL6; 100 μM): 65%
- inhibition at 25 µM (IL1β; 25 μM): 32%
- inhibition at 50 µM (IL1β; 50 μM): 48%
- inhibition at 100 µM (IL1β; 100 μM): 60%

- % Inhibition of cytokine release, relative to vehicle (TNF; LPS-stimulated human whole blood, 50 µM 11R-VIVIT) [1]: 79%
Molecule: Cell permeable NFAT inhibitor (11R-VIVIT) (peptide)

Molecule: CCc1ccc(OCC(=O)Nc2ccc(F)c([N+](=O)[O-])c2)cc1 [SJ000291942]
- Proinflammatory cytokine secretion from whole blood (in words) ([2]; whole blood with and without LPS, BMP receptor signaling agonist, FIG. 81C): enhances proinflammatory cytokine secretion

Molecule: CCCCCCCC/C=C\CCCCCCCCOCCOP(=O)([O-])OCC[N+](C)(C)C [OEPC, oleyloxyethyl phosphorylcholine]
- % Inhibition of cytokine release, relative to vehicle: TNF (TNF; 12.5 μM): −9% ± 17.3%
- % Inhibition of cytokine release, relative to vehicle: TNF (TNF; 25 μM): 6% ± 17.4%
- % Inhibition of cytokine release, relative to vehicle: TNF (TNF; 50 μM): 37% ± 14.7%
- % Inhibition of cytokine release, relative to vehicle: TNF (TNF; 100 μM): 57% ± 6.5%
- % Inhibition of cytokine release, relative to vehicle: IL6 (IL6; 12.5 μM): −3% ± 17.6%
- % Inhibition of cytokine release, relative to vehicle: IL6 (IL6; 25 μM): 39% ± 14.1%
- % Inhibition of cytokine release, relative to vehicle: IL6 (IL6; 50 μM): 65% ± 11.7%
- % Inhibition of cytokine release, relative to vehicle: IL6 (IL6; 100 μM): 83% ± 6.2%

Molecule: CCCCCCCCCCCC(=O)c1c(O)c(C(=O)CCCCCCCCCCC)c(O)c(C2CC(c3ccc(O)cc3)Oc3cc(O)ccc32)c1O (stereo not shown) [YM26734]
- % Inhibition of cytokine release, relative to vehicle: TNF (TNF; 12.5 μM): 41% ± 17.6%
- % Inhibition of cytokine release, relative to vehicle: TNF (TNF; 25 μM): 55% ± 22.6%
- % Inhibition of cytokine release, relative to vehicle: TNF (TNF; 50 μM): 64% ± 26.1%
- % Inhibition of cytokine release, relative to vehicle: TNF (TNF; 100 μM): 52% ± 22.7%
- % Inhibition of cytokine release, relative to vehicle: IL6 (IL6; 12.5 μM): 35% ± 18.8%
- % Inhibition of cytokine release, relative to vehicle: IL6 (IL6; 25 μM): 51% ± 29.5%
- % Inhibition of cytokine release, relative to vehicle: IL6 (IL6; 50 μM): 67% ± 21.7%
- % Inhibition of cytokine release, relative to vehicle: IL6 (IL6; 100 μM): 67% ± 15.1%
- % Inhibition of cytokine release, relative to vehicle: IL1β (IL1β; 12.5 μM): 51% ± 12.0%
- % Inhibition of cytokine release, relative to vehicle: IL1β (IL1β; 25 μM): 65% ± 3.5%
- % Inhibition of cytokine release, relative to vehicle: IL1β (IL1β; 50 μM): 73% ± 11.3%
- % Inhibition of cytokine release, relative to vehicle: IL1β (IL1β; 100 μM): 78% ± 8.9%
- Effect on (proinflammatory) cytokine release in whole blood assay (in words) [2]: dose-dependent inhibition

Molecule: CN1CC(=O)N2[C@H](c3c[nH]c4ccc(Cl)cc34)c3cc4c(cc3C[C@H]2C1=O)OCO4 [ISA-2011B]
- % Inhibition of cytokine release, relative to vehicle: TNF (TNF; 1 μM): 1% ± 11.2%
- % Inhibition of cytokine release, relative to vehicle: TNF (TNF; 10 μM): 17% ± 7.6%
- % Inhibition of cytokine release, relative to vehicle: TNF (TNF; 100 μM): 55% ± 8.8%
- % Inhibition of cytokine release, relative to vehicle: IL6 (IL6; 1 μM): −7% ± 7.7%
- % Inhibition of cytokine release, relative to vehicle: IL6 (IL6; 10 μM): 6% ± 19.7%
- % Inhibition of cytokine release, relative to vehicle: IL6 (IL6; 100 μM): 24% ± 19.5%
- % Inhibition of cytokine release, relative to vehicle: IL1β (IL1β; 1 μM): 17% ± 9%
- % Inhibition of cytokine release, relative to vehicle: IL1β (IL1β; 10 μM): 23% ± 6%
- % Inhibition of cytokine release, relative to vehicle: IL1β (IL1β; 100 μM): 86% ± 2.9%
- Effect on (proinflammatory) cytokine release in whole blood assay (in words) [2]: inhibits cytokine release

Molecule: CCCCCCCCCCCCCCCCCCc1ccc(C(=O)/C=C/C(=O)O)cc1 [OBAA]
- Effect on (proinflammatory) cytokine release in whole blood assay (in words) [2]: dose-dependent inhibition
